From article doi:10.1101/2023.03.24.534094v2 (biorxiv, 2023)
Read-outs that look alike come from different tables or passages of the source. Values belong to the compound of their own block, whether it stands above or below them.

Tests used:
Assay in all cases: biochemical
DMPK1 = biological target: T1, DMPK1 (Homo sapiens, UniProt Q09013)
T1 sequence (Q09013 1-629): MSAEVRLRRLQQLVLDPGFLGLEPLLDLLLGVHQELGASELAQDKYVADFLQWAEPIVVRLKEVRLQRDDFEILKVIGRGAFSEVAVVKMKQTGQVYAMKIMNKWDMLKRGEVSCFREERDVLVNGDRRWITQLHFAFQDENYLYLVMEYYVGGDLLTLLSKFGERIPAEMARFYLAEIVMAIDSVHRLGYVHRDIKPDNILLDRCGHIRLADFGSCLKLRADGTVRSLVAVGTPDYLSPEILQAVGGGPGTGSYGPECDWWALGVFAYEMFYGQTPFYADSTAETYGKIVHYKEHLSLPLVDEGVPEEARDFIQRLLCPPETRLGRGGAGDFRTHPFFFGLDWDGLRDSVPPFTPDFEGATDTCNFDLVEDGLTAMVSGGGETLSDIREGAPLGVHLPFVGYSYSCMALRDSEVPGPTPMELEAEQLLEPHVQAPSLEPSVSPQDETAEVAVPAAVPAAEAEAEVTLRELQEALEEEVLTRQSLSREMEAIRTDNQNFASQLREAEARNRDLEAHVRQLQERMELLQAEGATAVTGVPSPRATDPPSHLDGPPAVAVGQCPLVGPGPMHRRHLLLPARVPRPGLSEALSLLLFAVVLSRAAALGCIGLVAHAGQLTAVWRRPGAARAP

AKT3 = AKT3 (Homo sapiens, UniProt Q9Y243)
DYRK1A = DYRK1A (Homo sapiens, UniProt Q13627)
MYT1 = biological target: T2, MYT1 (Homo sapiens, UniProt Q99640)
T2 sequence (Q99640 1-499): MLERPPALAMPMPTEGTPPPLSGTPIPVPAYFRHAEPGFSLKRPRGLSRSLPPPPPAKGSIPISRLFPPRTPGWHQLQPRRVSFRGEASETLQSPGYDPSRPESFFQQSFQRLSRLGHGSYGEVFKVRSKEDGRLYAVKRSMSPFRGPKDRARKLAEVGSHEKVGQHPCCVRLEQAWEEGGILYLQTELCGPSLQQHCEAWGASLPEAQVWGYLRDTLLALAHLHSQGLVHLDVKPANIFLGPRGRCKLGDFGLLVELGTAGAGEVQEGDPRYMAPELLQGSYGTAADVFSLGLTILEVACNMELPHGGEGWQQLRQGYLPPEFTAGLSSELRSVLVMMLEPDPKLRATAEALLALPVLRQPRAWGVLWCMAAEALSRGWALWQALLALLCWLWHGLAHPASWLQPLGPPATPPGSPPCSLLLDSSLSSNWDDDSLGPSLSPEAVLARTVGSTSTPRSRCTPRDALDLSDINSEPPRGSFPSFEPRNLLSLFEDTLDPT

TAF1 = TAF1 (Homo sapiens, UniProt P21675)
EphB1 = biological target: T3, EphB1 (Homo sapiens, UniProt P54762)
T3 sequence (P54762 1-984): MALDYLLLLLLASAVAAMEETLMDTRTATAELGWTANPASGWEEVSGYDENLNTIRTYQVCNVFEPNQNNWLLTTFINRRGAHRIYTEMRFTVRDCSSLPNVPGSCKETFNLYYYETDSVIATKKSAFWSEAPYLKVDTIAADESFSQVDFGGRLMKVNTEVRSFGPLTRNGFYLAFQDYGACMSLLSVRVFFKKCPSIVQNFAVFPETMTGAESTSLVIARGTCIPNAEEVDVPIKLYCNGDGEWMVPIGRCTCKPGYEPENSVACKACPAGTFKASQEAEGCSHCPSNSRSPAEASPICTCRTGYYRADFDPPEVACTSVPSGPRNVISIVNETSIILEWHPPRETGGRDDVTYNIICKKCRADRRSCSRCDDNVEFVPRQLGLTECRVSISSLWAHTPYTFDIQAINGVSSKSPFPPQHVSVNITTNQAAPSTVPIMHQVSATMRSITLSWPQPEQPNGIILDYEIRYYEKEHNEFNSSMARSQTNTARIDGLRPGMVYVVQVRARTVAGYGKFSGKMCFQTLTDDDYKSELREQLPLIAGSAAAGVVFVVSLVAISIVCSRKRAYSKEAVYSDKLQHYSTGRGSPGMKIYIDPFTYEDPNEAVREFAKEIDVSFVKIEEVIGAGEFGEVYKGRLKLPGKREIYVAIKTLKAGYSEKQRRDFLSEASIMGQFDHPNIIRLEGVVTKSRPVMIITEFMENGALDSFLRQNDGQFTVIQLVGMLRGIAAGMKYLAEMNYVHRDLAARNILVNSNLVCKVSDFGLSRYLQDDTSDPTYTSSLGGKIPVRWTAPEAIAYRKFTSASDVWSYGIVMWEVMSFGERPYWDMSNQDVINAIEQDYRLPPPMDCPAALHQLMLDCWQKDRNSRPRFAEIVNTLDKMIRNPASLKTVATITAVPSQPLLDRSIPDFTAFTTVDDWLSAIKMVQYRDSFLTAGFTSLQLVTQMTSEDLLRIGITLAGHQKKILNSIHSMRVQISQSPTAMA

PAK4 = PAK4 (Homo sapiens, UniProt O96013)
JNK3 = JNK3 (Homo sapiens, UniProt P53779)
SLK = SLK (Homo sapiens, UniProt Q9H2G2)
SLK, sequence (Q9H2G2 whole entry): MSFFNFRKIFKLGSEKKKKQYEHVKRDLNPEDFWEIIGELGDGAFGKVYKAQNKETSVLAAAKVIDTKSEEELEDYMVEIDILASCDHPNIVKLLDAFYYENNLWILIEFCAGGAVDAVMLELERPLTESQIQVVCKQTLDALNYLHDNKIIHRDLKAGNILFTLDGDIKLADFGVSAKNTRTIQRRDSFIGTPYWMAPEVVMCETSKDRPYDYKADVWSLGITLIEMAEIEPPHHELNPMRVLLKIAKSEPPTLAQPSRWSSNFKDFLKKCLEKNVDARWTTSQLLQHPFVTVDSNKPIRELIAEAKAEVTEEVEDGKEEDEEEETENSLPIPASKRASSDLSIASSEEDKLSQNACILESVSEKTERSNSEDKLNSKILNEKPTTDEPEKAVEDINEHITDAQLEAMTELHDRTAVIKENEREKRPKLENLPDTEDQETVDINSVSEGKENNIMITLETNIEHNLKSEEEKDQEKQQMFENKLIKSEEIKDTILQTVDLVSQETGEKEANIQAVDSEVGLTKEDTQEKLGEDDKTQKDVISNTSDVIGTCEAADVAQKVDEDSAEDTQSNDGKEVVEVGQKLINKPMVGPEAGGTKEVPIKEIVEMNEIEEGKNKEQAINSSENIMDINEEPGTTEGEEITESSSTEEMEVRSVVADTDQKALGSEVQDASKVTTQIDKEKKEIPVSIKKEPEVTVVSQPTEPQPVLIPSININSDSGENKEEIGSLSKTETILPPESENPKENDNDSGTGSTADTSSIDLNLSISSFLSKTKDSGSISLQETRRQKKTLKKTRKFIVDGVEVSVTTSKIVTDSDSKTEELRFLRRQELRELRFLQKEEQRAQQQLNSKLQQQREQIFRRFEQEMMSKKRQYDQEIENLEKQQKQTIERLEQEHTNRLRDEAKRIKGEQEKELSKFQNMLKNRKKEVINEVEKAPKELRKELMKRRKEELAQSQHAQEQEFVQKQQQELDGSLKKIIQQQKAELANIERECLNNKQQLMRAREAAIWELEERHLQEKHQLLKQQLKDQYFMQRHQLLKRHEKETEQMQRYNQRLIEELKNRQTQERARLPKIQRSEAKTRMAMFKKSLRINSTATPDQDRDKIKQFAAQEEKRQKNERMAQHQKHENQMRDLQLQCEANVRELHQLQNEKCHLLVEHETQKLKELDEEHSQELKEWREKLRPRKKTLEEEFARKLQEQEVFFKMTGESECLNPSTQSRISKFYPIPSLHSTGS

JNK3, sequence (P53779 whole entry): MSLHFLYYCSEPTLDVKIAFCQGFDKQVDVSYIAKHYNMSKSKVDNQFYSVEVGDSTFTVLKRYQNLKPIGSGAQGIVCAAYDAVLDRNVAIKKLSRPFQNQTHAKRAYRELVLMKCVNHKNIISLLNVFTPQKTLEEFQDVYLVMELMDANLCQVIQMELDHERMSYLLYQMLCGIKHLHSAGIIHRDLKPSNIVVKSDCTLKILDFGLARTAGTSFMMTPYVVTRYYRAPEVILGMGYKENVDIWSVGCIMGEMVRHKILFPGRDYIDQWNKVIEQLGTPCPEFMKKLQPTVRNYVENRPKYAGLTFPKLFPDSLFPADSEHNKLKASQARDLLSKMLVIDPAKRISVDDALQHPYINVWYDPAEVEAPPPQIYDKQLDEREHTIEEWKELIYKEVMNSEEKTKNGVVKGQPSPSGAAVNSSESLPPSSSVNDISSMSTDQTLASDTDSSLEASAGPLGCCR
PAK4, sequence (O96013 whole entry): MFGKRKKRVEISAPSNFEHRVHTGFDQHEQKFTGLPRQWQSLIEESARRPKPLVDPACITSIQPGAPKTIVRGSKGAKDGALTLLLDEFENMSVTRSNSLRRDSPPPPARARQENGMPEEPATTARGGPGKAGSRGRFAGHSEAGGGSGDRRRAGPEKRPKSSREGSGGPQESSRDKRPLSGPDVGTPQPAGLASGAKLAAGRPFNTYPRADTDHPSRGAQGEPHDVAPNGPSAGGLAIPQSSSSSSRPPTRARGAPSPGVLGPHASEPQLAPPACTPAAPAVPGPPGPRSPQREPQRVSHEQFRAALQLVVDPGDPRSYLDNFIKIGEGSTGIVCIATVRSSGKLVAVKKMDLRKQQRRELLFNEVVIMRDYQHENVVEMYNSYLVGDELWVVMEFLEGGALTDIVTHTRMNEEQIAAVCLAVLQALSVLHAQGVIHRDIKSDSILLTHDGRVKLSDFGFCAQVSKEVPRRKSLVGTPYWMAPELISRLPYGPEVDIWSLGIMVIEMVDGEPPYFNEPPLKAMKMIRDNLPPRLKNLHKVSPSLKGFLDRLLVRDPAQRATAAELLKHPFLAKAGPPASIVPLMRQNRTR
AKT3, sequence (Q9Y243 whole entry): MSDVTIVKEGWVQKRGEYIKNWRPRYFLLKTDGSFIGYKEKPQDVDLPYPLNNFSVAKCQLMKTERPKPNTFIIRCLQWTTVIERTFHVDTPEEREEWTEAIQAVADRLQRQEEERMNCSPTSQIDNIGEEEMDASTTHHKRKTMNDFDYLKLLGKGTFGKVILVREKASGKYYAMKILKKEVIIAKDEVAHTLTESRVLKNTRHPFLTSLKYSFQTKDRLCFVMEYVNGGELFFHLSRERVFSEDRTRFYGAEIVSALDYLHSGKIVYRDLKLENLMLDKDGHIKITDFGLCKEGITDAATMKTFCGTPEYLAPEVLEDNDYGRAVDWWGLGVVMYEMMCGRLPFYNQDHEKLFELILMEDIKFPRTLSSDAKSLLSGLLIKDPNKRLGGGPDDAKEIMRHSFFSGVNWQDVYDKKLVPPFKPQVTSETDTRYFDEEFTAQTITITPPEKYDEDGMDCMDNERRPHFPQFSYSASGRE
TAF1, sequence (P21675 whole entry): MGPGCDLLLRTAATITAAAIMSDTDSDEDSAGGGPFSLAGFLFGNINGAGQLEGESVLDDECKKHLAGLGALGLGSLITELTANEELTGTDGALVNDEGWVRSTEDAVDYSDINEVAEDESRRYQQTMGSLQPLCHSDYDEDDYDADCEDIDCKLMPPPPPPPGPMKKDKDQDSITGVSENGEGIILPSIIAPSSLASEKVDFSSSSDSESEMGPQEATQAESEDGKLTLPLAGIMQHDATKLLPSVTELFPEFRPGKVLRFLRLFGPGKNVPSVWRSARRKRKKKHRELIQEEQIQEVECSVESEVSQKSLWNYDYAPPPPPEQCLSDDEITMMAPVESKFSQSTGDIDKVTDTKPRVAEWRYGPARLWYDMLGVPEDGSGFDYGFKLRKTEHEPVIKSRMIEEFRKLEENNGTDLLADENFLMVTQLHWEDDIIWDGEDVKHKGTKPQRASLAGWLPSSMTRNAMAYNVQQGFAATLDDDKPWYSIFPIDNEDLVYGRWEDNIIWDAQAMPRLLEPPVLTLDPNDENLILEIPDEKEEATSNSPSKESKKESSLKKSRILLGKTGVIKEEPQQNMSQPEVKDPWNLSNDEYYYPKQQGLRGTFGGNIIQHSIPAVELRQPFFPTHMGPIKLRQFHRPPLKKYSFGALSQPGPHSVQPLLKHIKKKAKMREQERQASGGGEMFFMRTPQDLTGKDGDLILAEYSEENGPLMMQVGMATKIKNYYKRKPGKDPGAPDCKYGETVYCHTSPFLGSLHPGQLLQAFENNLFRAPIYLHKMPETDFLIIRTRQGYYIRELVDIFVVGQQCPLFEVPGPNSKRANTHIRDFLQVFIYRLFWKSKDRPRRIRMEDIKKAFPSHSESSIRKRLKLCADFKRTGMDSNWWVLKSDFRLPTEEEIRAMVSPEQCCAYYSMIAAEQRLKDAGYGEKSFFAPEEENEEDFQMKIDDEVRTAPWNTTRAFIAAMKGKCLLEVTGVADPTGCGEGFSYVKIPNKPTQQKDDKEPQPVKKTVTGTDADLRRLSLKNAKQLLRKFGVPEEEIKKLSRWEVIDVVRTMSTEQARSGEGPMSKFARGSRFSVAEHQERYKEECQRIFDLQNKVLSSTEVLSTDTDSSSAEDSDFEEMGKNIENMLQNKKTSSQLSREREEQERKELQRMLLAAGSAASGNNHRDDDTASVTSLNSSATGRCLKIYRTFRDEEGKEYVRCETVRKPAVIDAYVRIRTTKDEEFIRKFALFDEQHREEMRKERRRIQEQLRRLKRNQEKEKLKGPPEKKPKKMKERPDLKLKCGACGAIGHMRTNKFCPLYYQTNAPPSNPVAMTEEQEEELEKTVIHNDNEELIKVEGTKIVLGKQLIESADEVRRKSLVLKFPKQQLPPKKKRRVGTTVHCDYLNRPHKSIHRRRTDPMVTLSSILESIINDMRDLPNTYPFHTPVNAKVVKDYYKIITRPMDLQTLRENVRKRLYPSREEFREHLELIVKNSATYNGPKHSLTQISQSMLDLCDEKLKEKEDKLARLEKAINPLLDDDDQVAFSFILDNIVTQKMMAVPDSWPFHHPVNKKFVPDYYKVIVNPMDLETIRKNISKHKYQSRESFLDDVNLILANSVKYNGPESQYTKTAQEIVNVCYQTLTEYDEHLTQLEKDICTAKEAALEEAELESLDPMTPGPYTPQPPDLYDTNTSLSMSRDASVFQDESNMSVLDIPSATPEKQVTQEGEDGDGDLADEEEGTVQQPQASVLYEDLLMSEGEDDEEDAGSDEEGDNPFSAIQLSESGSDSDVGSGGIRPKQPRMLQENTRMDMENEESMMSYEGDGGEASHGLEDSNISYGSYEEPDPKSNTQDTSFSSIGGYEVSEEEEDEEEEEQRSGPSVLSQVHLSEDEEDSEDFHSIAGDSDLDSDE

Structure (SMILES): CNc1ncc2cc(-c3cc(Br)ccc3Cl)c(=O)n(CCCCN)c2n1 [compound 6, 8-(4-Aminobutyl)-6-(5-bromo-2-chlorophenyl)-2-(methylamino)pyrido[2,3-d]pyrimidin-7(8H)-one]
- ΔTm at 10 µM (DMPK1; read-out: dTm 6): 1.2 °C
- ΔTm at 10 µM (AKT3; read-out: dTm 6): 0.2 °C
- ΔTm at 10 µM (DYRK1A; read-out: dTm 6): 0 °C
- ΔTm at 10 µM (MYT1; read-out: dTm 6): -1.4 °C
- ΔTm at 10 µM (TAF1; read-out: dTm 6): -0.6 °C
- ΔTm at 10 µM (EphB1; read-out: dTm 6): 4.7 °C
- ΔTm at 10 µM (PAK4; read-out: dTm 6): 1.1 °C
- ΔTm at 10 µM (JNK3; read-out: dTm 6): 1.1 °C

Structure (SMILES): CNc1ncc2cc(-c3cc(F)ccc3F)c(=O)n(CCCCN)c2n1 [compound 5, 8-(4-Aminobutyl)-6-(2,5-difluorophenyl)-2-(methylamino)pyrido[2,3-d]pyrimidin-7(8H)-one]
- ΔTm at 10 µM (DMPK1; read-out: dTm MR22 (5)): 0.9 °C
- ΔTm at 10 µM (AKT3; read-out: dTm MR22 (5)): 0.5 °C
- ΔTm at 10 µM (SLK; read-out: dTm MR22 (5)): -0.6 °C
- ΔTm at 10 µM (DYRK1A; read-out: dTm MR22 (5)): 0 °C
- ΔTm at 10 µM (MYT1; read-out: dTm MR22 (5)): -2.1 °C
- ΔTm at 10 µM (TAF1; read-out: dTm MR22 (5)): 0.2 °C
- ΔTm at 10 µM (EphB1; read-out: dTm MR22 (5)): 4.5 °C
- ΔTm at 10 µM (PAK4; read-out: dTm MR22 (5)): 0.2 °C

Structure (SMILES): CNc1ncc2cc(-c3ccccc3Cl)c(=O)n(CCCCN)c2n1 [compound 4, 8-(4-Aminobutyl)-6-(2-chlorophenyl)-2-(methylamino)pyrido[2,3-d]pyrimidin-7(8H)-one]
- ΔTm at 10 µM (DMPK1; read-out: dTm MR21 (4)): 2.8 °C
- ΔTm at 10 µM (AKT3; read-out: dTm MR21 (4)): 0.7 °C
- ΔTm at 10 µM (SLK; read-out: dTm MR21 (4)): 1.6 °C
- ΔTm at 10 µM (DYRK1A; read-out: dTm MR21 (4)): 1.4 °C
- ΔTm at 10 µM (MYT1; read-out: dTm MR21 (4)): -2.3 °C
- ΔTm at 10 µM (TAF1; read-out: dTm MR21 (4)): -0.1 °C
- ΔTm at 10 µM (EphB1; read-out: dTm MR21 (4)): 3.6 °C
- ΔTm at 10 µM (PAK4; read-out: dTm MR21 (4)): 2.8 °C
- ΔTm at 10 µM (JNK3; read-out: dTm MR21 (4)): 2.7 °C

Second part, the compound after the results:

- ΔTm at 10 µM (DMPK1; read-out: dTm 7): -0.1 °C
- ΔTm at 10 µM (AKT3; read-out: dTm 7): 0 °C
- ΔTm at 10 µM (DYRK1A; read-out: dTm 7): -0.6 °C
- ΔTm at 10 µM (MYT1; read-out: dTm 7): 0.1 °C
- ΔTm at 10 µM (TAF1; read-out: dTm 7): -0.8 °C
- ΔTm at 10 µM (EphB1; read-out: dTm 7): 3.1 °C
- ΔTm at 10 µM (PAK4; read-out: dTm 7): 0.5 °C
- ΔTm at 10 µM (JNK3; read-out: dTm 7): 0.5 °C
Structure (SMILES): CNc1ncc2cc(-c3cc(Br)ccc3Cl)c(=O)n(C[C@H]3OC[C@H](N)CO3)c2n1 [compound 7, 8-(((2r,5r)-5-Amino-1,3-dioxan-2-yl)methyl)-6-(5-bromo-2-chlorophenyl)-2-(methylamino)pyrido[2,3-d]pyrimidin-7(8H)-one]

- dTm G-5555 (2) (DMPK1; 10 µM, binder): -0.3 °C
- dTm G-5555 (2) (AKT3; 10 µM, binder): 1.4 °C
- dTm G-5555 (2) (SLK; 10 µM, binder): 7.2 °C
- dTm G-5555 (2) (DYRK1A; 10 µM, binder): -1.0 °C
- dTm G-5555 (2) (MYT1; 10 µM, binder): -2.1 °C
- dTm G-5555 (2) (PAK4; 10 µM, binder): 3.5 °C
- dTm G-5555 (2) (JNK3; 10 µM, binder): 1.8 °C
Structure (SMILES): CNc1ncc2cc(-c3ccc(-c4cccc(C)n4)cc3Cl)c(=O)n(CC3OCC(N)CO3)c2n1 (stereo not shown) [compound 2, G-5555]
